# Reference: patent US20260193317A1, “COMBINATION THERAPY WITH ACTRIIB RECEPTOR VARIANTS AND GLP-1 AGONISTS” (35PHARMA Inc., priority 2023, published 2026)
# How the values were obtained:
# Assay type in all cases: in vivo
# [1] = Single subcutaneous injection in CD-1 mice: body weight; settings: CD-1 male mice, single s.c. injection; P1229 50 mg/kg, semaglutide 2 mg/kg
# [2] = system: diet-induced obese (DIO) mice; assay: Body composition and metabolism in diet-induced obese (DIO) mice
# Procedure: Experiments were performed to assess the effects of P1229 on body composition and metabolism in diet-induced obese (DIO) mice. DIO mice were purchased from Jackson Laboratories (#380050). Briefly, mice were fed a high-fat diet (HFD, 60% kcal from fat) from 6 weeks of age until 22 weeks of age (total of 16 weeks on the HFD). […] After 3 weeks of treatments, some animals were sacrificed and scanned by EchoMRI […] (FIGS. 11A-F), while others were sacrificed for tissue collection and RNA analysis. Animals were maintained on the HFD throughout the acclimatization and treatment periods. The murine version of bimagrumab used for these experiments comprises the heavy chain amino acid sequence of SEQ ID NO: 376 and the light chain sequence of SEQ ID NO: 377.
# [3] = Single-injection body weight gain in wild-type mice; settings: single 25 mg/kg subcutaneous injection, after 4 days, vs vehicle
# Procedure: To investigate the target engagement of exemplary ActRIIB-ECD polypeptide constructs in vivo, mice (n=6/group) were injected with given agents (25 mg/kg, subcutaneous injection), and sacrificed after 4 days to assess body weight gain.
# [4] = system: DIO mice; assay: Body composition in high fat diet mice, alone and in combination with incretin mimetics
# [5] = Skeletal muscle mass and Mss51 expression in lean mice
# Procedure: The effects of P1229 on body composition and metabolism in lean mice were further assessed.
# Additional assays were performed to assess the relative expression level of Mss51, a skeletal muscle-specific gene. Mss51 is a key target of myostatin signaling, with a role in fatty acid oxidation, glycolysis, and oxidative phosphorylation.
# [6] = DIO mice, 21 days, P1229 10 mg/kg twice weekly
# [7] = DIO mice, 21 days, P1229 40 mg/kg twice weekly + calorie restriction
substance,measurement,setting,value
"P1229: hActRIIB L33W, 14 aa linker, IgG1-DL Fc; SEQ ID 211",body weight,[1],increased body weight
same,hepatic Ahsg expression,[2],reduced Ahsg expression
same,hepatic Fgf21 expression,[2],reduced
same,Mss51 gene expression in gastrocnemius muscle,[2]; 3 weeks,reduced Mss51 gene expression
same,ratio of lean mass to fat mass,[2]; 3 weeks,higher
same,fat mass and lean mass (EchoMRI),"[2]; 3 weeks s.c., P75, P1229 25 mg/kg twice weekly, P1373 5, 20, 50 mg/kg twice weekly, P1307 20 mg/kg weekly",fat loss with concomitant lean mass gain
same,body weight gain,[3],apparent body weight gain that did not reach statistical significance
same,Body weight (% change from baseline),"[4]; DIO mice, 21 days s.c., P1307 20 mg/kg weekly, P1229 40 mg/kg twice weekly, semaglutide 40 μg/kg daily, tirzepatide 45 μg/kg daily, alone or combined",+11.1%
same,Body weight (% change from baseline),[4]; [6],+7.7%
same,Fat mass (% change from baseline),[4]; [6],−1.6%
same,Lean mass (% change from baseline),[4]; [6],+10.6%
same,Lean mass/fat mass ratio,[4]; [6],1.4
same,Body weight (% change from baseline),[4]; [7],−12.8%
same,Fat mass (% change from baseline),[4]; [7],−33.7%
same,Lean mass (% change from baseline),[4]; [7],+3.5%
same,Lean mass/fat mass ratio,[4]; [7],1.9
same,"visceral, epididymal, pericardial, peri-renal, and retroperitoneal white adipose tissue weights","[4]; DIO mice, D21",not significantly affected
same,white adipose tissue weights,"[4]; DIO mice, D21, P1229 with caloric restriction","significantly decreased visceral, pericardial, and peri-renal (but not epididymal and retroperitoneal) white adipose tissue weights"
same,gastrocnemius and tibialis anterior weights,"[4]; DIO mice, D21, P1229 with or without caloric restriction",significantly increased
same,Fat mass (% change from baseline),"[4]; as E44, NMR",+2.7%
same,Lean mass (% change from baseline),"[4]; as E44, NMR",+15.1%
same,Lean mass/fat mass ratio,"[4]; as E44, NMR",1.3
same,tibialis anterior and gastrocnemius weight,"[5]; 25 mg/kg twice weekly, seven days",significantly increased
same,Mss51 expression in the tibialis muscle relative to vehicle,"[5]; 5 or 25 mg/kg twice weekly, one week",dose-dependent decrease in Mss51 expression
